Several values for one entry are separate records, joined by “and”; a condition that tells them apart may be missing. Equal values may be shown once. Read-outs that look alike come from different tables or passages of the source.
Assays:
[1] = test system: GM-CSF-induced STAT5 phosphorylation (JAK2-dependent pathway); assay: Human whole blood assay (hWBA), GM-CSF stimulation, phospho-STAT5 on CD33+ cells; type: cell-based; conditions: 7 different donors
Description: A flow cytometry analysis was performed to establish JAK1 over JAK2 compound selectivity ex vivo using human whole blood. Therefore, blood is taken from human volunteers who gave informed consent. Blood is then equilibrated for 30 min at 37° C. under gentle rocking, then aliquoted in Eppendorf tubes. Compound is added at different concentrations and incubated at 37° C. for 30 min under gentle rocking and subsequently stimulated for 20 min at 37° C. under gentle rocking with interleukin 6 (IL-6) for JAK1-dependent pathway stimulation or GM-CSF for JAK2-dependent pathway stimulation. Phospho-STAT1 and phospho-STAT5 are then evaluated using FACS analysis. […]
Cells were then washed once with 1×PBS and analyzed on a FACSCanto II flow cytometer (BD Biosciences).
50,000 total events were counted and Phospho-STAT5 positive cells were measured after gating on CD33^+ cells. Data were analyzed using the FACSDiva software and correspond to the percentage of inhibition of GM-CSF stimulation calculated from the percentage of positive cells for phosphor-STAT5 on CD33^+ cells.
A flow cytometry analysis was performed to establish JAK1 over JAK2 compound selectivity ex vivo using human whole blood. […] Phospho-STAT1 (for IL-6- and IFNα-stimulated cells) and phospho-STAT5 (for IL-2- and GM-CSF-stimulated cells) levels are then evaluated using FACS analysis. […]

[2] = target: T1, Recombinant human JAK2 catalytic domain (Homo sapiens, UniProt O60674); assay: JAK2 Ulight-JAK1 peptide assay; type: biochemical
T1 construct: amino acids 808-1132; catalog number PV4210; GST; purchased Invitrogen PV4210
T1 sequence (O60674 808-1132): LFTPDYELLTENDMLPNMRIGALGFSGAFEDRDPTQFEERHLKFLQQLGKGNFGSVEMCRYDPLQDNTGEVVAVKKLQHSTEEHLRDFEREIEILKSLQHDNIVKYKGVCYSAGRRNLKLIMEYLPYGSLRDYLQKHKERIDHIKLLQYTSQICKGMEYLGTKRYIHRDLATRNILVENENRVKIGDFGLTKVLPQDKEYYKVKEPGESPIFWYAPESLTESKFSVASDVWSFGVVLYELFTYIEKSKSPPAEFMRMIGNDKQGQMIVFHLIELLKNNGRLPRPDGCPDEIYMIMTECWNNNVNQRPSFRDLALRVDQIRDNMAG
Description: 0.0125 mU of JAK2 was incubated with 25 nM Ulight-JAK1(tyr1023) peptide (Perkin Elmer catalog number TRF0121) in kinase reaction buffer (25 mM HEPES pH7.0, 0.01% Triton X-100, 7.5 mM MgCl2, 2 mM DTT, 7.5 μM ATP) with or without 4 μL containing test compound or vehicle (DMSO, 1% final concentration), in a total volume of 20 μL, in a white 384 Opti plate (Perkin Elmer, catalog number 6007290). After 60 min at room temperature, reactions were stopped by adding 20 μL/well of detection mixture (1× detection buffer (Perkin Elmer, catalog number CR97-100C), 0.5 nM Europium-anti-phosphotyrosine (PT66) (Perkin Elmer, catalog number AD0068), 10 mM EDTA). Readout was performed using the Envision with excitation at 320 nm and measuring emission at 615 nm (Perkin Elmer). Kinase activity was calculated by subtracting relative fluorescence units (RFU) obtained in the presence of a positive control inhibitor (10 μM staurosporine) from RFU obtained in the presence of vehicle. The ability of a test compound to inhibit this activity was determined as:
Percentage inhibition−((RFU determined for sample with test compound present−RFU determined for sample with positive control inhibitor) divided by (RFU determined in the presence of vehicle−RFU determined for sample with positive control inhibitor))*100. […]

Nc1nc2cccc(-c3ccc(CN4CCS(=O)(=O)CC4)cc3)n2n1 [Formula I, 5-[4-(1,1-Dioxothiomorpholin-4-ylmethyl)-phenyl]-[1,2,4]triazolo[1,5-a]pyridin-2-ylamine]
IC50 [1]: > 100000 nM
IC50 ([2]; average, read-out: IC50 (average)): 397 nM
IC50 ([2]; individual determinations, read-out: IC50): 1030 nM and 517 nM and 351 nM and 138 nM and 367 nM and 310 nM and 729 nM and 152 nM and 203 nM and 168 nM
